Reference: article PMC7529893, “Structural basis for substrate recognition and chemical inhibition of oncogenic MAGE ubiquitin ligases” (Nature Communications, 2020)
Like-named read-outs stand apart in the source and are kept apart here.

Columns and labels:
[1] = target: T1, MAGE-A11:PCF11 interaction (GST-MAGE-A11 MHD and FAM-PCF11_4) (Homo sapiens, UniProt P43364); test: TR-FRET dose response test of compounds for disruption of MAGE-A11:PCF11 binding
T1 construct: GST-MAGE-A11 MHD (human MAGE-A11 MHD amino acid 218-429); made in house; host or cells: E. coli BL21(DE3)
T1 sequence (P43364 218-429): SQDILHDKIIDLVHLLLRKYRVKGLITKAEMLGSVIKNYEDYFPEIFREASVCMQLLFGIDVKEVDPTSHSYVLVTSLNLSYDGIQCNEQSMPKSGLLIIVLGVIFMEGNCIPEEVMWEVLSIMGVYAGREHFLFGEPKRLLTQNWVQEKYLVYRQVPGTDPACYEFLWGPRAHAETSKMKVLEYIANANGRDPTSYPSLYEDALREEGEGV
Procedure: The TR-FRET assay buffer with a formula of 50 mM Tris pH 7.5, 20 mM MgCl2, 0.1 mg/ml BSA and 1 mM DTT was freshly prepared before each experiment. All TR-FRET assays were performed in black 384-well plates with 20 µl/well assay volume in the TR-FRET assay buffer at room temperature (~25 °C). All peptides or compounds were solubilized in DMSO. To test the competitive activity of peptides or compounds against the interaction between GST-MAGE-A11 MHD and FAM-PCF11_4 peptide, 10 µl/well peptide or compound at specified concentration was dispensed into a black 384-well low volume plate, followed by 5 µl/well FAM-PCF11_4 (800 nM), 5 µl/well Tb-anti-GST (20 nM), and GST-MAGE-A11 MHD (20 nM). The assay components in each well was then mixed by shaking the plate on an IKA MTS 2/4 digital microtiter plate shaker (IKA Works; Wilmington, NC, USA) for 1 min. The plate was further centrifuged in an Eppendorf 5810 centrifuge with an A-4-62 swing-bucket rotor (Eppendorf AG, Hamburg, Germany) at 201 g for 30 s. The plate was then incubated for 90 min with a lid to avoid light exposure to the assay components. After incubation, the fluorescent emission signals at 520 nm and 490 nm channels of individual wells were measured with a PHERAstar FS plate reader (BMG Labtech; Durham, NC, USA) by using a 340 nm excitation filter, 100 µs delay time, and 200 µs integration time. The TR-FRET fluorescence emission ratio (TR-FRET signal) for each well was presented as 10,000 × 520 nm/490 nm, which was used directly for curve fitting, or further converted to %Inhibition based on the respective positive and negative controls. The graphic software GraphPad Prism 4.81 (GraphPad Software; La Jolla, CA, USA) was used to generate curves and derive IC50 values of tested peptides or compounds, if applicable.
TR-FRET screen for identifying MAGE-A11 small molecule inhibitors was performed as follows. The primary one-concentration screening and subsequent 10 or 20-concentration dose-response tests were accomplished with an automated High Throughput Screening system (HighRes Biosolutions, Beverly, MA)[30]. In the primary screening, 15 µl/well FAM-PCF11_4 (267 nM) was first dispensed with a Multidrop Combi Reagent Dispenser (Thermo Fisher Scientific, Waltham, MA) to black 384-well low-volume assay plates. The plates were spun down with a Velocity11 VSpin microplate centrifuge (Agilent Technologies, Santa Clara, CA). In total, 30 nl/well of 10 mM compound/DMSO solutions, or DMSO alone, were transferred from compound plates (the St. Jude FDA drug and bioactive library, Drug-like library and Lead-like library) or a control plate to the assay plates with a Pin Tool (V&P Scientific, San Diego, CA). The compounds were arrayed in columns 3–12 and columns 15–24 of compound plates. The controls were arrayed in columns 1, 2, 13, and 14 of a compound plate. In all, 5 µl/well Tb-anti-GST (20 nM) and GST-MAGE-A11 (20 nM) or 5 µl/well Tb-anti-GST (20 nM) alone was then dispensed to selected wells with a Multidrop Combi Reagent Dispenser. The final assay volume was 20 µl/well. The final DMSO concentration was 0.25% (v/v) (0.1% (v/v) from the FAM-PCF11_4 DMSO stock solution and 0.15% (v/v) from the compound-DMSO solution or the DMSO for the control wells). The final tested compound concentration was 15 µM. The final FAM-PCF11_4 concentration was 200 nM and the final Tb-anti-GST concentration was 5 nM. The final GST-MAGE-A11 concentration was 5 nM except for those selected positive control wells in which GST-MAGE-A11 was not presented. The plates were then shaken with a big bear shaker (Big Bear Automation, Santa Clara, California) and spun down with the Velocity11 VSpin microplate centrifuge for 20 s. The plates were then incubated at room temperature in a Liconic incubator (Liconic US, Woburn, MA) for 90 min. The TR-FRET signals for individual wells were measured with a PHERAstar FS plate reader. The %Inhibition of each tested inhibitor was calculated by using Eq. 1.

[2] = target: T2, MAGE-A11:PCF11 interaction (GST-MAGE-A11 and FAM-PCF11_4) (Homo sapiens, UniProt P43364); test: TR-FRET primary / single point screen at 15 µM; assay type: binding
T2 construct: GST-MAGE-A11 MHD (human MAGE-A11 MHD amino acid 218-429); made in house; host or cells: E. coli BL21(DE3)
T2 sequence (P43364 218-429): T1 sequence (P43364 218-429)
In short: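 TR-FRET 520/490 nm emission ratio was read after 90 min at room temperature. Wells held 5 nM GST-MAGE-A11, 5 nM Tb-anti-GST, 200 nM FAM-PCF11_4 and 15 µM compound in Tris pH 7.5 buffer with MgCl2, BSA and DTT. %Inhibition was scaled to DMSO and minus-MAGE-A11 controls.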

[3] = Dose response TR-FRET screening of nine scaffold groups against MAGE-A11:PCF11, read-out: consensus IC50
[4] = Supplementary Data 3, 59 quinoline compounds, read-out: TR-FRET IC50
[5] = single point TR-FRET screening of quinoline compounds against MAGE-A11:PCF11, 15 µM
[6] = single point TR-FRET screening of 797 quinoline compounds against MAGE-A11:PCF11

SMILES | IC50 [1, 3] | other results
Cc1ccc(S(=O)(=O)N2CCN(C3=C(Cl)C(=O)c4ccccc4C3=O)CC2)cc1 [SJ000021282-1] | 10.4 µM | –
O=C1C(Cl)=C(NC(=O)C(F)(F)F)C(=O)c2ccccc21 [SJ000024928-1] | 9.87 µM | –
Cc1ccc(S(=O)(=O)c2nc(-c3cccc(C)c3)oc2N2CCOCC2)cc1 [SJ000027480-1] | 11.2 µM | –
O=S(=O)(c1ccc(Cl)cc1)c1nc(-c2cccc(Br)c2)oc1N1CCOCC1 [SJ000027481-1] | 9.2 µM | –
Cc1ccc(S(=O)(=O)c2nc(-c3cccc([N+](=O)[O-])c3)oc2N2CCOCC2)cc1 [SJ000027482-1] | 9.54 µM | –
CCCCOc1ccc(N(C(C)=O)C2=C(Cl)C(=O)c3ccccc3C2=O)cc1 [SJ000032717-1] | 8.71 µM | –
CCCCCOc1ccc(N(C(C)=O)C2=C(Cl)C(=O)c3ccccc3C2=O)cc1 [SJ000032724-1] | 28.3 µM | –
COc1cccc(-c2nc(S(=O)(=O)c3ccc(C)cc3)c(N3CCOCC3)o2)c1 [SJ000038123-1] | 17.4 µM | –
COc1cccc(-c2nc(S(=O)(=O)c3ccc(Cl)cc3)c(N3CCOCC3)o2)c1 [SJ000038124-1] | 7.43 µM | –
COP(=O)(OC)c1nc(-c2ccc(Cl)cc2)oc1N1CCOCC1 [SJ000090185-1] | – | IC50 [1]: 17.4 µM
CN(C)c1ccc(NC2=C(Cl)C(=O)c3ccccc3C2=O)cc1 [SJ000109503-1] | 3.3 µM | –
COc1cc2nc(N3CCN(C(=O)C4COc5ccccc5O4)CC3)nc(N)c2cc1OC (stereo not drawn) [SJ000113084-10] | 57.1 µM | –
CCOC(=O)N1CCN(Cc2ccc3c(c2)c2ccccc2n3CC)CC1 [SJ000147352-1] | 29.5 µM | –
CCC(COC(C)=O)NC1=C(Cl)C(=O)c2ccccc2C1=O (stereo not drawn) [SJ000149466-1] | 17.2 µM | –
CCCS(=O)(=O)N1CCN(Cc2ccc3c(c2)c2ccccc2n3CC)CC1 [SJ000167951-1] | 19.2 µM | –
Cc1ccc(S(=O)(=O)c2nc(-c3ccc(F)cc3)oc2N2CCOCC2)cc1 [SJ000230854-1] | 11.7 µM | –
Cc1ccc(S(=O)(=O)c2nc(-c3ccccc3Cl)oc2N2CCOCC2)cc1 [SJ000230856-1] | 4.34 µM | –
O=S(=O)(c1ccccc1)c1nc(-c2ccc(Br)cc2)oc1N1CCOCC1 [SJ000244320-1] | 8.63 µM | –
CS(=O)(=O)c1ccc(C2=C(c3ccccc3)C(=O)OC2)cc1 [SJ000285362-5] | 67.6 µM | –
COc1cc2nc(N(C)CCCNC(=O)C3CCCO3)nc(N)c2cc1OC (stereo not drawn) [SJ000286094-9] | 36.2 µM | –
C=CCn1c(=O)c2c(nc(-c3ccc(S(=O)(=O)O)cc3)n2C)n(C)c1=O [SJ000287614-4] | > 70 µM | –
Cn1c(=O)c2[nH]c(-c3ccc(S(=O)(=O)O)cc3)nc2n(C)c1=O [SJ000287642-4] | 21.8 µM | –
NC1=C(N2CCCCC2)C(=O)c2ccccc2C1=O [SJ000294373-2] | 20.1 µM | –
CC(C)(C)c1ccc(O)c(CNCCCNc2ccnc3cc(Cl)ccc23)c1 [SJ000311193-1] | 30.4 µM | –

SMILES | IC50 [1, 3] | other results
c1ccc(Oc2ccc3c(NCCCNCc4cccc5c4OCO5)ccnc3c2)cc1 [SJ000311208-1] | 30.1 µM | –
COc1ccc(F)cc1CNCCCNc1ccnc2cc(Oc3ccccc3)ccc12 [SJ000311209-1] | 29 µM | –
COc1cccc(Oc2ccc3c(NCCCNCc4cccc5c4OCO5)ccnc3c2)c1 [SJ000311216-1] | 36.9 µM | –
COc1cccc(Oc2ccc3c(NCCCNCc4cc(F)ccc4OC)ccnc3c2)c1 [SJ000311217-1] | 36.8 µM | –
COc1ccc(Oc2ccc3c(NCCCNCc4ccco4)ccnc3c2)cc1 [SJ000311218-1, COc1ccc(Oc2ccc3c(NCCCNCc4occc4)ccnc3c2)cc1] | – | IC50 [1, 4]: > 70 µM
COc1ccc(Oc2ccc3c(NCCCNCc4cccc(OC)c4O)ccnc3c2)cc1 [SJ000311219-1] | 29 µM | –
COc1ccc(Oc2ccc3c(NCCCNCc4cccc5c4OCO5)ccnc3c2)cc1 [SJ000311220-1] | 43.7 µM | –
COc1ccc(Oc2ccc3c(NCCCNCc4cc(F)ccc4OC)ccnc3c2)cc1 [SJ000311221-1] | 46.4 µM | –
COc1cccc(CNCCCNc2ccnc3cc(Oc4ccc(F)cc4)ccc23)c1O [SJ000311223-1] | 61.9 µM | –
Fc1ccc(Oc2ccc3c(NCCCNCc4cccc5c4OCO5)ccnc3c2)cc1 [SJ000311224-1] | 59.6 µM | –
Clc1ccc(Oc2ccc3c(NCCCNCc4ccco4)ccnc3c2)cc1 [SJ000311226-1, Clc1ccc(Oc2ccc3c(NCCCNCc4occc4)ccnc3c2)cc1] | – | IC50 [1, 4]: > 70 µM
COc1cccc(CNCCCNc2ccnc3cc(Oc4ccc(Cl)cc4)ccc23)c1O [SJ000311227-1] | 20.7 µM | –
Clc1ccc(Oc2ccc3c(NCCCNCc4cccc5c4OCO5)ccnc3c2)cc1 [SJ000311228-1] | 17.7 µM | –
COc1ccc(F)cc1CNCCCNc1ccnc2cc(Oc3ccc(Cl)cc3)ccc12 [SJ000311229-1] | 19.7 µM | –
CN(C)c1cccc(Oc2ccc3c(NCCCNCc4ccco4)ccnc3c2)c1 [SJ000311230-1, CN(C)c1cccc(Oc2ccc3c(NCCCNCc4occc4)ccnc3c2)c1] | – | IC50 [1, 4]: > 70 µM
CCCN(CCCCCC(=O)OC)CCCNc1ccnc2cc(C(F)(F)F)ccc12 [SJ000575191] | – | percent inhibition (TR-FRET) [2, 5]: 5.6
Clc1ccc2c(NCCCNCc3ccc[nH]3)ccnc2c1 [SJ000575192] | – | percent inhibition (TR-FRET) [2, 5]: 52.9917
Clc1ccc2c(NCCCNCc3ccc(Br)s3)ccnc2c1 [SJ000575193] | – | percent inhibition (TR-FRET) [2, 5]: 15.3375
O=C(C[C@H]1CC[C@]2(CC1)OO[C@]1(O2)C2CC3CC(C2)CC1C3)NCCNc1ccnc2cc(Cl)ccc12 [SJ000578361] | – | percent inhibition (TR-FRET) [2, 6]: 28.0142
O=C(C[C@H]1CC[C@]2(CC1)OO[C@]1(O2)C2CC3CC(C2)CC1C3)NCCCNc1ccnc2cc(Cl)ccc12 [SJ000578380] | – | percent inhibition (TR-FRET) [2, 5]: 28.4789
Clc1ccc2c(NCCNCC[C@H]3CC[C@]4(CC3)OO[C@]3(O4)C4CC5CC(C4)CC3C5)ccnc2c1 [SJ000578381] | – | percent inhibition (TR-FRET) [2, 6]: 18.3966
O=C(C[C@H]1CC[C@]2(CC1)OO[C@]1(O2)C2CC3CC(C2)CC1C3)NCCCCNc1ccnc2cc(Cl)ccc12 [SJ000578384] | – | percent inhibition (TR-FRET) [2, 6]: 25.1182
Cc1cc(NC(=O)CN[C@H]2CCN(Cc3ccccc3)C2)c2ccccc2n1 [SJ000832405] | – | percent inhibition (TR-FRET) [2, 6]: 4.364
Cc1cc(NC(=O)CN[C@H]2CCN(Cc3cccc(F)c3)C2)c2ccccc2n1 [SJ000832581] | – | percent inhibition (TR-FRET) [2, 6]: -1.278
